According to ChEMBL document CHEMBL4507316 (2021):

Key:
[1] = biological target: Tyrosine-protein kinase ABL1 (Homo sapiens) (UniProt P00519); test: ABL1 wt ProQinase selectivity panel; settings: Compound concentration 1.0 uM
[2] = biological target: Eukaryotic translation initiation factor 2-alpha kinase 3 (Homo sapiens) (UniProt Q9NZJ5); test: EIF2AK3 ProQinase selectivity panel; settings: Compound concentration 1.0 uM
[3] = biological target: Ephrin type-B receptor 2 (Homo sapiens) (UniProt P29323); test: EPHB2 ProQinase selectivity panel; settings: Compound concentration 1.0 uM
[4] = biological target: Mitogen-activated protein kinase 3 (Homo sapiens) (UniProt P27361); test: ERK1 ProQinase selectivity panel; settings: Compound concentration 1.0 uM
[5] = biological target: Serine/threonine-protein kinase MARK1 (Homo sapiens) (UniProt Q9P0L2); test: MARK1 ProQinase selectivity panel; settings: Compound concentration 1.0 uM
[6] = biological target: MAP/microtubule affinity-regulating kinase 4 (Homo sapiens) (UniProt Q96L34); test: MARK4 ProQinase selectivity panel; settings: Compound concentration 1.0 uM
[7] = tested on: Dual specificity mitogen-activated protein kinase kinase 6 (Homo sapiens), P52564 [S207D,T211D]; test: MKK6 S207D/T211D ProQinase selectivity panel; settings: Compound concentration 1.0 uM
[8] = biological target: Serine/threonine-protein kinase Nek7 (Homo sapiens) (UniProt Q8TDX7); test: NEK7 ProQinase selectivity panel; settings: Compound concentration 1.0 uM
[9] = biological target: Serine/threonine-protein kinase PAK 2 (Homo sapiens) (UniProt Q13177); test: PAK2 ProQinase selectivity panel; settings: Compound concentration 1.0 uM
[10] = biological target: Protein kinase C eta type (Homo sapiens) (UniProt P24723); test: PKC-eta ProQinase selectivity panel; settings: Compound concentration 1.0 uM
[11] = biological target: Proto-oncogene tyrosine-protein kinase receptor Ret (Homo sapiens) (UniProt P07949); test: RET wt ProQinase selectivity panel; settings: Compound concentration 1.0 uM
[12] = biological target: Ribosomal protein S6 kinase alpha-5 (Homo sapiens) (UniProt O75582); test: RPS6KA5 ProQinase selectivity panel; settings: Compound concentration 1.0 uM
[13] = biological target: STE20/SPS1-related proline-alanine-rich protein kinase (Homo sapiens) (UniProt Q9UEW8); test: STK39 ProQinase selectivity panel; settings: Compound concentration 1.0 uM
[14] = biological target: Serine/threonine-protein kinase TBK1 (Homo sapiens) (UniProt Q9UHD2); test: TBK1 ProQinase selectivity panel; settings: Compound concentration 1.0 uM
[15] = biological target: NT-3 growth factor receptor (Homo sapiens) (UniProt Q16288); test: TRK-C ProQinase selectivity panel; settings: Compound concentration 1.0 uM
[16] = biological target: D(1B) dopamine receptor (Homo sapiens) (UniProt P21918); settings: Compound concentration 10.0 uM
[17] = biological target: Muscarinic acetylcholine receptor M5 (Homo sapiens) (UniProt P08912); settings: Compound concentration 10.0 uM

Chain of Mitogen-activated protein kinase 3 (Homo sapiens) (P27361 whole entry): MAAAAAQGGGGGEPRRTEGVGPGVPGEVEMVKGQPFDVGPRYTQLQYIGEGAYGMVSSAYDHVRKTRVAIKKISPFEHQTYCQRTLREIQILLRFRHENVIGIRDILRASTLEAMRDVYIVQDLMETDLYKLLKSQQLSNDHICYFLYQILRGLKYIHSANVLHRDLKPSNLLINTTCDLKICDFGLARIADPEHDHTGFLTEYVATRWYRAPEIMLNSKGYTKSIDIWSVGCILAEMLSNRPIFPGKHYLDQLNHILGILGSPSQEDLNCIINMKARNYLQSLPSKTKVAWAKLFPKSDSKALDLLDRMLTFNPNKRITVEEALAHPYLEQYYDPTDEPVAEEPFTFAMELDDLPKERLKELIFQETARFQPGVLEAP
Chain of Serine/threonine-protein kinase Nek7 (Homo sapiens) (Q8TDX7 whole entry, looked up): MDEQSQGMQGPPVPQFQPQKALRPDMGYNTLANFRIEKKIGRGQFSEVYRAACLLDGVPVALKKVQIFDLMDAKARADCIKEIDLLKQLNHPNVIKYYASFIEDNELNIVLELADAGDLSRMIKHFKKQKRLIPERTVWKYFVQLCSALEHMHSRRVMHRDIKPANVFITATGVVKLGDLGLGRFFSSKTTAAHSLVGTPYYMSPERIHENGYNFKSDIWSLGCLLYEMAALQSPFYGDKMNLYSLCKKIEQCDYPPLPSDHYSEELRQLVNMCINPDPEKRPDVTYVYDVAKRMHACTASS
Chain of Serine/threonine-protein kinase PAK 2 (Homo sapiens) (Q13177 whole entry): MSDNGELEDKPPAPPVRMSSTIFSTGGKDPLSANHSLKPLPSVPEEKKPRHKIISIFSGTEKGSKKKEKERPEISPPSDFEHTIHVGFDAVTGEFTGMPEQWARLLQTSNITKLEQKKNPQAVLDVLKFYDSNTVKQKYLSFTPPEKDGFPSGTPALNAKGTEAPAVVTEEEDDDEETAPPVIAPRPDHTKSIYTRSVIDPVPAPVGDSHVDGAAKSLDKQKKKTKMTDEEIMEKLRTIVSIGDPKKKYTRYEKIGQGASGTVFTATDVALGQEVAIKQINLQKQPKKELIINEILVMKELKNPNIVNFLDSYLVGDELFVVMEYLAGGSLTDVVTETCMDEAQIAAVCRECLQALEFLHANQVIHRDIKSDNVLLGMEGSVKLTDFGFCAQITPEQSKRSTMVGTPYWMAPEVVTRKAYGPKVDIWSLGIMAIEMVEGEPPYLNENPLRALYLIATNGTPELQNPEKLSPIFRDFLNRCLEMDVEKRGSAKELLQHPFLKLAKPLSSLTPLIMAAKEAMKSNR
Chain of Eukaryotic translation initiation factor 2-alpha kinase 3 (Homo sapiens) (Q9NZJ5 whole entry): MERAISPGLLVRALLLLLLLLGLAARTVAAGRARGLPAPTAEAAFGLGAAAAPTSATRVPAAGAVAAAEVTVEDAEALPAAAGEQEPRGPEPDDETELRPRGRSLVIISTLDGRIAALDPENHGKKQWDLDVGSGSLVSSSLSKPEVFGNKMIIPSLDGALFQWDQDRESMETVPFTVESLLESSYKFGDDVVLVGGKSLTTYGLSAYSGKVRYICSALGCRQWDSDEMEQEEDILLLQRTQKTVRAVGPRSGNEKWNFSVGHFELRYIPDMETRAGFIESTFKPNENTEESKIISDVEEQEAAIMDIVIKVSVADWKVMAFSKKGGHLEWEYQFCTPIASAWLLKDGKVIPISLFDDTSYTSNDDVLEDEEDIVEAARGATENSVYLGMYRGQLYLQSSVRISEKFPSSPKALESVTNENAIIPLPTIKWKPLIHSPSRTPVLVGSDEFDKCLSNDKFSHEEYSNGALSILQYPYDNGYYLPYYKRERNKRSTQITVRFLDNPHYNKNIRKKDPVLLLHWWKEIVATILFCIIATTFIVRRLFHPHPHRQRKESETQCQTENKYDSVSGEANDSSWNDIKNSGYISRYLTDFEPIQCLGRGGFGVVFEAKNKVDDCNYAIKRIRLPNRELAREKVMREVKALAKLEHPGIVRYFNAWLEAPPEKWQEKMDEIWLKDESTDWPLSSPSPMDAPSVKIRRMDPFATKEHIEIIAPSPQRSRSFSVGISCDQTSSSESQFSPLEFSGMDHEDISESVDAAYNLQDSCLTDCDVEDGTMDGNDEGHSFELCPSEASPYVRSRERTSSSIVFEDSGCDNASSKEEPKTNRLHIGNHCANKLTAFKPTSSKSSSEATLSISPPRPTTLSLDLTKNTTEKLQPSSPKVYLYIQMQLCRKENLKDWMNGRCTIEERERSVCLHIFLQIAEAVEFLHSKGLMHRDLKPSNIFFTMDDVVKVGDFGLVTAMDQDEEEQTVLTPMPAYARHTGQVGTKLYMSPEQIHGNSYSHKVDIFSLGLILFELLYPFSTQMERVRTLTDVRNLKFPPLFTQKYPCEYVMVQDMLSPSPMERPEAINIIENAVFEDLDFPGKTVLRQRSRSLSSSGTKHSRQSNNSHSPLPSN
Chain of Ephrin type-B receptor 2 (Homo sapiens) (P29323 whole entry): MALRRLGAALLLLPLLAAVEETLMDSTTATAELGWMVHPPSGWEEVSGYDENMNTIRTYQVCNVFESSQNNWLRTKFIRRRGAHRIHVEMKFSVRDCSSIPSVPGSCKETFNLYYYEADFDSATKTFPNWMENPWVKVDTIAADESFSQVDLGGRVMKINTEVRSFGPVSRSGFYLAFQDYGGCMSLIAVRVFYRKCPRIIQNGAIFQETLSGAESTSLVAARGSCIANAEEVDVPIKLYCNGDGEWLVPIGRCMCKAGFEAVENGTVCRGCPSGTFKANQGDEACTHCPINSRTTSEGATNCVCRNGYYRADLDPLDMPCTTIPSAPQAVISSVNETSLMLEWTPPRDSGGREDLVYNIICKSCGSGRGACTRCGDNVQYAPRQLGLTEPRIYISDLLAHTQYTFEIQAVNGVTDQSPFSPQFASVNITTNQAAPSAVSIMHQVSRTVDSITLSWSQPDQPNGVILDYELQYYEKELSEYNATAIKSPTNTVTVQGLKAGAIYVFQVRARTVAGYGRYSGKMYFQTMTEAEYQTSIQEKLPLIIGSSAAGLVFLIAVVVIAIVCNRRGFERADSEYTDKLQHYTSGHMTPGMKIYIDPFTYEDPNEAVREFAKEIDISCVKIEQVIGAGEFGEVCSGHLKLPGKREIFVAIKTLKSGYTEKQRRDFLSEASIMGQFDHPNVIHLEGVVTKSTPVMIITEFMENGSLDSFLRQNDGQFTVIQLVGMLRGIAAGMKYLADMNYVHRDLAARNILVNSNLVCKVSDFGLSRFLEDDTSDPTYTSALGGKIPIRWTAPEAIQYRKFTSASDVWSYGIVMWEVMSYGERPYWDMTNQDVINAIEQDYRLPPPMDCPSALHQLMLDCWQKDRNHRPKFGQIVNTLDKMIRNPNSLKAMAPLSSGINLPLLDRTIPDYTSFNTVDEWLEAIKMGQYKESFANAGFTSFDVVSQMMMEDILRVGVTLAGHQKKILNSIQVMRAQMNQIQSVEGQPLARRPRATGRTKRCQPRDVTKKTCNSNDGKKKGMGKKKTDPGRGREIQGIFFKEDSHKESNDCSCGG
Chain of D(1B) dopamine receptor (Homo sapiens) (P21918 whole entry): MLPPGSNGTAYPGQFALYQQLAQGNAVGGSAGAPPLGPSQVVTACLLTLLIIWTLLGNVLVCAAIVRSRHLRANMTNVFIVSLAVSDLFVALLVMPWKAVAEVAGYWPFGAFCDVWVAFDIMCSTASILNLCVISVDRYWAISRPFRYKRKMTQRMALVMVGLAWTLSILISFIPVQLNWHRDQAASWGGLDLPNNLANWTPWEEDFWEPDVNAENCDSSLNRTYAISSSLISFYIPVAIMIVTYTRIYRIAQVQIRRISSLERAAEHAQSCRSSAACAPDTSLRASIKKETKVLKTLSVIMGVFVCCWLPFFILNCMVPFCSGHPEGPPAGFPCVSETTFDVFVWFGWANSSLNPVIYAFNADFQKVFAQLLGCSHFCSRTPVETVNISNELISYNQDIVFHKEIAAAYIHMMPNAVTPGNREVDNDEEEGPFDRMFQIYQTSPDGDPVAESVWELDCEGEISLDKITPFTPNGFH
Chain of MAP/microtubule affinity-regulating kinase 4 (Homo sapiens) (Q96L34 whole entry): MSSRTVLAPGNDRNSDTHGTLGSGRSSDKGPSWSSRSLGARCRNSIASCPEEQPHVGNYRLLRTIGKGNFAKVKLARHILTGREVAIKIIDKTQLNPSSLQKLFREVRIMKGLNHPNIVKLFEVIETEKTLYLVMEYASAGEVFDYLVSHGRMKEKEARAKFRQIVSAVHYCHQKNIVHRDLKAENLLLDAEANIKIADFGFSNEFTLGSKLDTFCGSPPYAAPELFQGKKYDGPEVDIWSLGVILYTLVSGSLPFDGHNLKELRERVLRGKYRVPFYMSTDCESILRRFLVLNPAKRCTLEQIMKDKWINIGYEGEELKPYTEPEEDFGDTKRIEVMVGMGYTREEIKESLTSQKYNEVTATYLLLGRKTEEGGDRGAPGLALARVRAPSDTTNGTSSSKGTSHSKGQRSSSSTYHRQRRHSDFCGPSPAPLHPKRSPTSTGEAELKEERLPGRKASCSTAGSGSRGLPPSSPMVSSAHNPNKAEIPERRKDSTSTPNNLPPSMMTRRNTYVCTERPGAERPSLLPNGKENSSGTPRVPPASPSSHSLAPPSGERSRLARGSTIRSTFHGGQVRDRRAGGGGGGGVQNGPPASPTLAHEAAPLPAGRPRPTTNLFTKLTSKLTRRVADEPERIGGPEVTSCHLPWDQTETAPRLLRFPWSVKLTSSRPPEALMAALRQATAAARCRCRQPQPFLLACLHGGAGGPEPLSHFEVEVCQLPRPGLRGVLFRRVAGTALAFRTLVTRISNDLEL
Chain of Dual specificity mitogen-activated protein kinase kinase 6 (Homo sapiens), P52564 [S207D,T211D] (P52564 whole entry S207D/T211D): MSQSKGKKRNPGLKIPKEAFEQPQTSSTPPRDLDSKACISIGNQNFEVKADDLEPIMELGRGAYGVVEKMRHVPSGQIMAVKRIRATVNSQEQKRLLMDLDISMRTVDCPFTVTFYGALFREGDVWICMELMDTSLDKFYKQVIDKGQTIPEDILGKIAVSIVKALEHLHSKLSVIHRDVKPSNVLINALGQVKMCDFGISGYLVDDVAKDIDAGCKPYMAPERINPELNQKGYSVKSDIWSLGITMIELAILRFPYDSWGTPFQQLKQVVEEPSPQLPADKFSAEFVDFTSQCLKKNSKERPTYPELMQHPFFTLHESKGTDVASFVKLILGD

O=C1c2ccc(Nc3ccc(F)cc3F)cc2CCc2ccc(OC[C@H](O)CO)cc21 [Skepinone-L]
inactive: % Residual activity with Skepinone-L [1] 95% | % Residual activity with Skepinone-L [2] 95% | % Residual activity with Skepinone-L [3] 91% | % Residual activity with Skepinone-L [4] 99% | % Residual activity with Skepinone-L [5] 88% | % Residual activity with Skepinone-L [6] 96% | % Residual activity with Skepinone-L [7] 120% | % Residual activity with Skepinone-L [8] 83% | % Residual activity with Skepinone-L [9] 83% | % Residual activity with Skepinone-L [10] 97% | % Residual activity with Skepinone-L [11] 102% | % Residual activity with Skepinone-L [12] 77% | % Residual activity with Skepinone-L [13] 53% | % Residual activity with Skepinone-L [14] 87% | % Residual activity with Skepinone-L [15] 120% | inhibition [16] 21% | inhibition [17] -9.46%
